Assay results taken from patent publication US12144864B2, “Tubulysins and protein-tubulysin conjugates” (Regeneron Pharmaceuticals, Inc., priority 2018, dated 2024).
Where two headings read alike, the source gives them in different places.

Columns and labels:
C4-2 cells = experiment: Cell-based killing assay of payloads (CellTiter-Glo), C4-2 cells; parameters: species or system human; settings: 5-day incubation; for IC50: Homo sapiens, C4-2, 120 h, average ± SD where replicates; for C4-2 % Kill: at maximum concentration tested (100 − % viable cells)
Procedure, shortened: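 Cells plated at 4000/well in line-specific complete medium, grown overnight, then exposed to 1:3 serial dilutions of payload (100 nM to […]) for 5 days. ATP-based CellTiter-Glo luminescence read; IC50 from four-parameter logistic 10-point fit, and % kill at top concentration as 100 − % viable.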

T47D cells = experiment: Cell-based killing assay of payloads (CellTiter-Glo), T47D cells; parameters: species or system human; settings: 5-day incubation; for IC50: Homo sapiens, T47D, 120 h; for T47D % Kill: at maximum concentration tested
Experimental: (§1) To test the ability of the disclosed tubulysin payloads to kill human cell lines, an in vitro cytotoxicity assay was performed. In vitro cytotoxicity of the disclosed payloads, as well as reference compounds, were evaluated using the CellTiter-Glo Assay Kit (Promega, Cat #G7573), in which the quantity of ATP present is used to determine the number of viable cells in culture. For the assay, C4-2, HEK293, or T47D cells were seeded at 4000 cells/well on Nunclon white 96-well plates in complete growth medium (DME high glucose:Ham's F12 at 4:1, 10% FBS, 100 units/ml Penicillin, 100 ug/ml streptomycin, 53 ug/ml glutatmine, 10 ug/ml insulin, 220 ng/ml biotin, 12.5 pg/ml T3, 12.5 ug/ml Adenine, 4 ug/ml transferrin for C42 cells; DME high glucose, 10% FBS, 100 units/ml Penicillin, 100 ug/ml streptomycin, 53 ug/ml glutatmine for HEK293; RPMI, 10% FBS, 100 units/ml Penicillin, 100 ug/ml streptomycin, 53 ug/ml glutatmine, 10 ug/ml insulin, 10 mM HEPEs, 200 nM Sodium Pyruvate for T47D cells) and grown overnight at 37° C. in 5% CO2. For cell viability curves, 1:3 serially diluted payloads were added to the cells at final concentrations ranging from 100 nM to […], including a no treatment control group, and were then incubated for 5 days. After the 5-day incubation, cells were incubated at room temperature with 100 μL of CellTiter-Glo reagents for 10 minutes. Relative luminescence units (RLU) were determined on a Victor plate reader (PerkinElmer). The IC50 values were determined from a four-parameter logistic equation over a 10-point response curve (GraphPad Prism). All IC50 values are expressed in molar (M) concentration. The percent cell killing (% kill) at the maximum concentration tested was estimated from the following formula (100−% viable cells). Averages±standard deviation (SD) are included where replicate experiments were performed.

HEK293 cells = experiment: Cell-based killing assay of payloads (CellTiter-Glo), HEK293 cells; parameters: species or system human; settings: 5-day incubation; for IC50: Homo sapiens, HEK293, 120 h; for HEK293 % Kill: at maximum concentration tested
Experimental: as §1

HCT15 cells = experiment: cells; format: cell-based, human; settings: HCT15 cells; for HCT-15 + verapamil % Kill / HCT-15 % Kill: maximum % cell killing
Procedure, shortened: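 HCT15 colorectal carcinoma cells, 1000 per well in RPMI/10% FBS, with or without 5 ug/mL verapamil, exposed to 1:3 serially diluted payloads for 5 days at 37 °C. Viability measured by CellTiter-Glo ATP luminescence; IC50 from four-parameter logistic fit of a 10-point curve, % kill at top concentration.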

HL60/MX2 cells = experiment: Cytotoxicity in panel of MDR cell lines, HL60/MX2 (72 h and 144 h); format: cell-based, human; settings: for IC50: Homo sapiens
Procedure, shortened: (§2)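 MDR lines (HCT-15; doxorubicin-resistant H69AR; mitoxantrone-resistant MES-SA/MX2 and HL60/MX2) seeded at 1000 cells/well in normal growth media, treated with 1:3 serially diluted payloads for 72 h and 144 h. Viability by CellTiter-Glo ATP luminescence; IC50 from four-parameter logistic fit of 10-point curves.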

MES-SA/MX2 cells = experiment: Cytotoxicity in panel of MDR cell lines, MES-SA/MX2 (72 h and 144 h); format: cell-based, human; settings: for IC50: Homo sapiens
Procedure, shortened: as §2

HCT-15 cells = experiment: Cytotoxicity in panel of MDR cell lines, HCT-15 (72 h and 144 h); format: cell-based, human; settings: for IC50: Homo sapiens
Procedure, shortened: as §2

H69AR cells = experiment: Cytotoxicity in panel of MDR cell lines, H69AR (72 h and 144 h); format: cell-based, human; settings: for IC50: Homo sapiens
Procedure, shortened: as §2

[1] = with 5 ug/mL Verapamil, read-out: HCT-15 + verapamil IC50
[2] = Homo sapiens, HCT-15, without Verapamil, read-out: HCT-15 IC50
[3] = 72 h incubation, read-out: HL60/MX2 IC50 72 h
[4] = 144 h incubation, read-out: HL60/MX2 IC50 144 h
[5] = 72 h incubation, read-out: MES-SA/MX2 IC50 72 h
[6] = 144 h incubation, read-out: MES-SA/MX2 IC50 144 h
[7] = 72 h incubation, read-out: HCT-15 IC50 72 h
[8] = 144 h incubation, read-out: HCT-15 IC50 144 h
[9] = 72 h incubation, read-out: H69AR IC50 72 h
[10] = 144 h incubation, read-out: H69AR IC50 144 h

Row | Structure (SMILES) | IC50 (C4-2 cells) [nM] | C4-2 % Kill (C4-2 cells) [%] | IC50 (T47D cells) [nM] | T47D % Kill (T47D cells) [%] | IC50 (HEK293 cells) [nM] | HEK293 % Kill (HEK293 cells) [%] | HCT-15 % Kill (HCT15 cells; without Verapamil) [%] | IC50 (HCT15 cells; [2]) [nM] | HL60/MX2 % Kill 72 h (HL60/MX2 cells; 72 h incubation) [%] | HL60/MX2 % Kill 144 h (HL60/MX2 cells; 144 h incubation) [%] | IC50 (HL60/MX2 cells; [3]) [nM] | IC50 (HL60/MX2 cells; [4]) [nM] | MES-SA/MX2 % Kill 72 h (MES-SA/MX2 cells; 72 h incubation) [%] | MES-SA/MX2 % Kill 144 h (MES-SA/MX2 cells; 144 h incubation) [%] | IC50 (MES-SA/MX2 cells; [5]) [nM] | IC50 (MES-SA/MX2 cells; [6]) [nM] | HCT-15 % Kill 72 h (HCT-15 cells; 72 h incubation) [%] | HCT-15 % Kill 144 h (HCT-15 cells; 144 h incubation) [%] | IC50 (HCT-15 cells; [7]) [nM] | IC50 (HCT-15 cells; [8]) [nM] | also measured
1 | C#CCCCCN(C(=O)[C@@H](NC(=O)[C@H]1CCCCN1C)[C@@H](C)CC)[C@H](C[C@@H](OC(C)=O)c1nc(C(=O)N[C@@H](Cc2ccc(O)cc2)C[C@H](C)C(=O)O)cs1)C(C)C [IVf, (2S,4R)-4-({2-[(1R,3R)-1-(Acetyloxy)-3-[(2S,3S)—N-(hex-5-yn-1-yl)-3-methyl-2-{[(2R)-1-methylpiperidin-2-yl]formamido}pentanamido]-4-methylpentyl]-1,3-thiazol-4-yl}formamido)-5-(4-hydroxyphenyl)-2-methylpentanoic acid] | 0.229 | 93.8 | 0.782 | 67.1 | 1.64 | 86.0 | 96.4 | 0.554 | 97.2 | 100 | 0.222 | < 0.015 | 99.1 | 99.9 | 2.57 | 3.82 | 96.9 | 99.8 | 0.419 | 0.396 | HCT-15 + verapamil % Kill (HCT15 cells; with 5 ug/mL Verapamil): 97.7%; IC50 (HCT15 cells; [1]): 0.686 nM; H69AR % Kill 72 h (H69AR cells; 72 h incubation): 94.6%; H69AR % Kill 144 h (H69AR cells; 144 h incubation): 98.9%; IC50 (H69AR cells; [9]): 1.33 nM; IC50 (H69AR cells; [10]): 1.55 nM
2 | C#CCCCCN(C(=O)[C@@H](NC(=O)[C@H]1CCCCN1C)[C@@H](C)CC)[C@H](C[C@@H](OC(C)=O)c1nc(C(=O)N[C@@H](Cc2ccc(N)cc2)C[C@H](C)C(=O)O)cs1)C(C)C [IVg, (2S,4R)-4-({2-[(1R,3R)-1-(Acetyloxy)-3-[(2S,3S)—N-(hex-5-yn-1-yl)-3-methyl-2-{[(2R)-1-methylpiperidin-2-yl]formamido}pentanamido]-4-methylpentyl]-1,3-thiazol-4-yl}formamido)-5-(4-aminophenyl)-2-methylpentanoic acid] | 0.136 | 91.7 | 0.413 | 62.9 | 0.539 | 86.5 | 97.1 | 0.46 | 98.5 | 100 | 0.124 | < 0.015 | 99.6 | 100 | 0.838 | 0.999 | 97.6 | 99.5 | 0.17 | 0.223 | HCT-15 + verapamil % Kill (HCT15 cells; with 5 ug/mL Verapamil): 97.5%; IC50 (HCT15 cells; [1]): 0.328 nM; H69AR % Kill 72 h (H69AR cells; 72 h incubation): 95.7%; H69AR % Kill 144 h (H69AR cells; 144 h incubation): 99.2%; IC50 (H69AR cells; [9]): 0.553 nM; IC50 (H69AR cells; [10]): 0.571 nM
3 | CC[C@H](C)[C@H](NC(=O)[C@H]1CCCCN1C)C(=O)N(CCCCc1cn(C)nn1)[C@H](C[C@@H](OC(C)=O)c1nc(C(=O)N[C@@H](Cc2ccc(N)cc2)CC(C)(C)C(=O)O)cs1)C(C)C [IVh, (S)-4-(2-((1R,3R)-1-acetoxy-4-methyl-3-((2S,3S)-3-methyl-N-(4-(1-methyl-1H-1,2,3-triazol-4-yl)butyl)-2-((R)-1-methylpiperidine-2-carboxamido)pentanamido)pentyl)thiazole-4-carboxamido)-5-(4-aminophenyl)-2,2-dimethylpentanoic acid] | 0.647 | 82 ± 2.8 | 1.86 | 71.6 | 1.76 | 82.5 | 94.6 ± 3.5 | 2.5 | 96.4 | 100 | 1.11 | < 0.015 | 98.5 | 99.9 | 7.49 | 8.8 | 95.4 | 99.7 | 1.52 | 1.53 | H69AR % Kill 72 h (H69AR cells; 72 h incubation): 90.2%; H69AR % Kill 144 h (H69AR cells; 144 h incubation): 97.5%; IC50 (H69AR cells; [9]): 2.93 nM; IC50 (H69AR cells; [10]): 3.3 nM
4 | CCCCCON(C(=O)[C@@H](NC(=O)[C@H]1CCCCN1C)[C@@H](C)CC)[C@H](C[C@@H](OC(C)=O)c1nc(C(=O)N[C@@H](Cc2ccc(N)cc2)CC(C)(C)C(=O)O)cs1)C(C)C [Vb, (4S)-4-({2-[(1R,3R)-1-(Acetyloxy)-4-methyl-3-[(2S,3S)-3-methyl-2-{[(2R)-1-methylpiperidin-2-yl]formamido}-N-(pentyloxy)pentanamido]pentyl]-1,3-thiazol-4-yl}formamido)-5-(4-aminophenyl)-2,2-dimethylpentanoic acid] | 0.07 | 92.3 ± 1.7 | 0.144 | 66.5 | 0.289 | 87.8 | 98.8 ± 0.7 | 0.12 | 97.9 | 100 | < 0.015 | < 0.015 | 99.6 | 99.9 | 0.213 | 1.04 | 97.8 | 99.7 | 0.0623 | 0.127 | HCT-15 + verapamil % Kill (HCT15 cells; with 5 ug/mL Verapamil): 98.2 ± 0.5%; IC50 (HCT15 cells; [1]): 0.0365 nM; H69AR % Kill 72 h (H69AR cells; 72 h incubation): 97%; H69AR % Kill 144 h (H69AR cells; 144 h incubation): 99.4%; IC50 (H69AR cells; [9]): 0.272 nM; IC50 (H69AR cells; [10]): 0.66 nM
5 | C#CCCCON(C(=O)[C@@H](NC(=O)[C@H]1CCCCN1C)[C@@H](C)CC)[C@H](C[C@@H](OC(C)=O)c1nc(C(=O)N[C@@H](Cc2ccccc2)CC(C)(C)C(=O)O)cs1)C(C)C [Vc, (4S)-4-({2-[(1R,3R)-1-(Acetyloxy)-4-methyl-3-[(2S,3S)-3-methyl-2-{[(2R)-1-methylpiperidin-2-yl]formamido}-N-(pent-4-yn-1-yloxy)pentanamido]pentyl]-1,3-thiazol-4-yl}formamido)-2,2-dimethyl-5-phenylpentanoic acid] | 0.036 | 91.7 | 0.0677 | 64.9 | 0.113 | 86.9 | 97.6 | 0.475 | 98.4 | 99.9 | < 0.015 | < 0.015 | 99.2 | 100 | 0.0895 | 0.299 | 97.6 | 99.7 | 0.033 | 0.0675 | HCT-15 + verapamil % Kill (HCT15 cells; with 5 ug/mL Verapamil): 96.7%; IC50 (HCT15 cells; [1]): 0.146 nM; H69AR % Kill 72 h (H69AR cells; 72 h incubation): 96.6%; H69AR % Kill 144 h (H69AR cells; 144 h incubation): 99.4%; IC50 (H69AR cells; [9]): 0.154 nM; IC50 (H69AR cells; [10]): 0.287 nM
